Laboratory results reported in article PMC8396878, “Ether Oxidation by an Evolved Fungal Heme-Peroxygenase: Insights into Substrate Recognition and Reactivity” (Journal of Fungi, 2021).
pKi: −log10 of the molar value.

Columns and labels:
Format in all cases: biochemical
[1] = target: T1, unspecific peroxygenase (UPO) PaDa-I (Cyclocybe aegerita, UniProt B9W4V6, F354L/I291V/L110F/V100A/V118I); assay: inhibition of NBD peroxygenation (Michaelis-Menten kinetics); also uncompetitive inhibition of ABTS peroxidation
T1 construct: gene APO1; laboratory-evolved variant PaDa-I, heterologously expressed and purified
T1 sequence (B9W4V6 44-371 V100A/L110F/V118I/I291V/F354L): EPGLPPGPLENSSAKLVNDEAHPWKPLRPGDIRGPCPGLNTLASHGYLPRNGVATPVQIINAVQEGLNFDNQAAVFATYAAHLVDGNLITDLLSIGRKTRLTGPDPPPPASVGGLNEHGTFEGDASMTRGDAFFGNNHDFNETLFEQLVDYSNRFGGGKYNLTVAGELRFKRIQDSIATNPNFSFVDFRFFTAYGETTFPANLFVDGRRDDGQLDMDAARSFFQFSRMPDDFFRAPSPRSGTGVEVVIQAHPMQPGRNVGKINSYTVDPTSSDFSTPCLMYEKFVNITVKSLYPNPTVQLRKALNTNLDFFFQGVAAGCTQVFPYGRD

[2] = target: T2, unspecific peroxygenase (UPO) PaDa-I (Cyclocybe aegerita, UniProt B9W4V6, V100A/L110F/V118I/I291V/F354L); assay: H2O2-dependent ether oxidation, total turnover number by HPLC
T2 construct: gene APO1; laboratory-evolved variant PaDa-I, heterologously expressed and purified
T2 sequence (B9W4V6 44-371 V100A/L110F/V118I/I291V/F354L): T1 sequence (B9W4V6 44-371 V100A/L110F/V118I/I291V/F354L)

[3] = target: T2, unspecific peroxygenase (UPO) PaDa-I; assay: colorimetric peroxygenation assay (4-nitrocatechol production), Michaelis-Menten plot
[4] = target: T1, unspecific peroxygenase (UPO) PaDa-I; assay: inhibition of catalase activity (O2 production, Clark electrode); substrate consumption by HPLC

O=C(O)COCc1ccccc1 [benzyloxyacetate]
pKi [1]: 2.46

c1ccc(COCc2ccccc2)cc1 [dibenzylether]
H2O2-dependent ether oxidation, total turnover number by HPLC [2]: the more hydrophobic substrate (dibenzylether) was the most efficiently converted

O=[N+]([O-])c1ccc2c(c1)OCO2 [NBD, 5-nitro-1,3-benzodioxole]
colorimetric peroxygenation assay (4-nitrocatechol production), Michaelis-Menten [3]: Michaelis–Menten plots for (A) NBD peroxygenation and (B) ABTS peroxidation in the presence of benzyloxyacetate

OCCOCc1ccccc1 [2-(benzyloxy)ethanol]
pKi [4]: 3.41
